{
  "source": "paper PMC3745430",
  "about": "“Novel Multiplexed Assay for Identifying SH2 Domain Antagonists of STAT Family Proteins” (PLoS ONE, 2013)",
  "key": {"[1]": {"target": "T1, STAT5b(136–703) (Homo sapiens, UniProt P51692)", "T1 construct": "136 to 703 of human STAT5b; 6×His-tag (N); made in house; host or cells: E. coli BL-21 Star (DE3) pLysS co-transformed with pBirAcm", "T1 sequence (P51692 136-703)": "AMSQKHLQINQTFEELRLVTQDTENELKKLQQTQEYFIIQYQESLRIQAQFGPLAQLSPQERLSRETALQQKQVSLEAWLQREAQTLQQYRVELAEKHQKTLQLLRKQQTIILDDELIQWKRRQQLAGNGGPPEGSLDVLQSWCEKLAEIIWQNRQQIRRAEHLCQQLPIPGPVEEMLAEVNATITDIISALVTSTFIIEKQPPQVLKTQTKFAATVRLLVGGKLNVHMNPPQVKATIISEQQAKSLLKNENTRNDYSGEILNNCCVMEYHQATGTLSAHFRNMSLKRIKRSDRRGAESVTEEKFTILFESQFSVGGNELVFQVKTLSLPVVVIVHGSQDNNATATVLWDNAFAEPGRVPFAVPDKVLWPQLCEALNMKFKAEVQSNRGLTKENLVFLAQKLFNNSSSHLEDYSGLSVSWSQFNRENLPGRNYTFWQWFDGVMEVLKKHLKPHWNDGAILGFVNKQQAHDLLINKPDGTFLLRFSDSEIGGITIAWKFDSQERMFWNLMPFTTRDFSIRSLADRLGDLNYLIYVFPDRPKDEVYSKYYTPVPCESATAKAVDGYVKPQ", "experiment": "Single STAT5b-SH2 binding assay (AlphaScreen)", "details": "non-multiplexed single assay", "protocol": "Both AlphaLISA and AlphaScreen are bead-based nonradioactive binding assay systems for detecting biomolecular interactions in a microplate format. The binding of the biological partners brings the donor and acceptor beads into close proximity, and AlphaLISA produces a specific signal around 615 nm and AlphaScreen emits a broad signal between 520 and 620 nm. The assays were performed in a final reaction volume of 25 µL of the assay buffer, which contained 10 mM HEPES-NaOH (pH 7.4), 50 mM NaCl, 1 mM EDTA (pH 8.0), 0.1% (w/v) NP-40, and 10 ng/µL (w/v) BSA in a 96-well microplate at 25°C. The labeled phosphotyrosyl (pTyr, pY) peptide probes were DIG-GpYLPQTV and FITC-GpYLVLDKW for STAT3 and STAT5b, respectively. In the single assay for STAT3 binding, 100 nM STAT3(136–705) protein was incubated with a test compound dissolved in DMSO for 30 min, and 1.0 nM DIG-GpYLPQTV was added and the mixture was incubated for 90 min. Streptavidin-coated donor beads (0.25 µg/well) and anti-DIG AlphaLISA acceptor beads (0.25 µg/well) were added and incubated for 90 min before the signals were measured with EnVison Xcite (PerkinElmer Life Sciences). In the single assay for STAT5b binding, 20 nM STAT5b(136–703) was incubated with a test compound for 30 min, and 1.0 nM FITC-GpYLVLDKW was added and incubated for 90 min. Streptavidin-coated donor beads (0.25 µg/well) and anti-FITC AlphaScreen acceptor beads (0.25 µg/well) were added and incubated for 90 min before the signals were measured with EnVison Xcite. In the multiplexed assay, 100 nM STAT3(136–705) and 20 nM STAT5b(136–703) were incubated with a test compound for 30 min, and 1.0 nM DIG-GpYLPQTV and 1.0 nM FITC-GpYLVLDKW were added and incubated for 90 min. Streptavidin-coated donor beads (0.50 µg/well), anti-DIG AlphaLISA (0.25 µg/well), and anti-FITC AlphaScreen acceptor beads (0.25 µg/well) were added and incubated for 90 min before the signals were measured with EnVison Xcite. AlphaLISA and AlphaScreen signals for measuring STAT3- and STAT5b-SH2 binding, respectively, can be separately measured by using a dysprosium 572 nm and a europium 615 nm narrow bandwidth filter. In inhibitory assays, these signals for the bound state and the free state were represented as 0% and 100% inhibition, respectively. The bound state was measured by incubating the labeled peptide and the protein without test compounds. The free state was measured by incubating the same mixture with an additional 10 µM non-labeled peptide contained phosphorylated tyrosine, which competitively binds to its corresponding protein. The IC50 value was calculated by Graph pad prism 4.0. The mean and the standard error (SEM) of IC50 values were determined from three independent experiments. The Z’ value was calculated using the equation Z’ = 1–(3×SD_bound +3×SD_free)/(Signal_bound – Signal_free). STAT1 and Grb2 binding assays were performed as described in previous report. In the assays for selectivity of Compound 1, 100 pM biotinylated DIG or 100 pM biotinylated FITC was incubated with 10 µM or 30 µM Compound 1 for 30 min. Streptavidin-coated donor beads (0.25 µg/well) and anti-DIG AlphaLISA acceptor beads (0.25 µg/well) or anti-FITC AlphaScreen acceptor beads (0.25 µg/well) were added and incubated for 90 min before the signals were measured with EnVison Xcite."}, "[2]": {"target": "T2, STAT1-SH2 (Homo sapiens, UniProt P42224)", "T2 construct": "made in house", "T2 sequence (P42224 1-750)": "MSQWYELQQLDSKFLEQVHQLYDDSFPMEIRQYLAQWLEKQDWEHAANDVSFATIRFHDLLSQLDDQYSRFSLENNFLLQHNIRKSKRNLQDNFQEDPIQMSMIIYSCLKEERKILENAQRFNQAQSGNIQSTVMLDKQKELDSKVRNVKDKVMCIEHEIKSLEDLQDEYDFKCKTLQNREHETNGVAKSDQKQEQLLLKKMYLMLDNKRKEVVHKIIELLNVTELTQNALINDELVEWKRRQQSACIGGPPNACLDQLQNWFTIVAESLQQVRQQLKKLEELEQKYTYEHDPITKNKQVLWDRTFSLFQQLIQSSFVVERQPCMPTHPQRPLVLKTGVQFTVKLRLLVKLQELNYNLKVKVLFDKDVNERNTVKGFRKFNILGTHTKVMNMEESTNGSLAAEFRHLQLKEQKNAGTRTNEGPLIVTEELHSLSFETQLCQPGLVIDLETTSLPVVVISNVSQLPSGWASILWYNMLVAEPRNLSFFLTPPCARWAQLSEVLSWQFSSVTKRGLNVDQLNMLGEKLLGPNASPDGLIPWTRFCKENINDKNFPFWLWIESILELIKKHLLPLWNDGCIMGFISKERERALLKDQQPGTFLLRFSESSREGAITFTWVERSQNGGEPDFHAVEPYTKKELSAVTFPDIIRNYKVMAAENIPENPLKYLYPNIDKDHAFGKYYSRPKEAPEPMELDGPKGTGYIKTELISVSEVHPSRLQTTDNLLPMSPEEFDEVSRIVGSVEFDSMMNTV", "experiment": "STAT1-SH2 binding AlphaScreen assay", "details": "AlphaScreen assay (Figure S8A)", "protocol": "(§1) Both AlphaLISA and AlphaScreen are bead-based nonradioactive binding assay systems for detecting biomolecular interactions in a microplate format. The binding of the biological partners brings the donor and acceptor beads into close proximity, and AlphaLISA produces a specific signal around 615 nm and AlphaScreen emits a broad signal between 520 and 620 nm. The assays were performed in a final reaction volume of 25 µL of the assay buffer, which contained 10 mM HEPES-NaOH (pH 7.4), 50 mM NaCl, 1 mM EDTA (pH 8.0), 0.1% (w/v) NP-40, and 10 ng/µL (w/v) BSA in a 96-well microplate at 25°C. […] Streptavidin-coated donor beads (0.25 µg/well) and anti-DIG AlphaLISA acceptor beads (0.25 µg/well) were added and incubated for 90 min before the signals were measured with EnVison Xcite (PerkinElmer Life Sciences). […] Streptavidin-coated donor beads (0.25 µg/well) and anti-FITC AlphaScreen acceptor beads (0.25 µg/well) were added and incubated for 90 min before the signals were measured with EnVison Xcite. […] Streptavidin-coated donor beads (0.50 µg/well), anti-DIG AlphaLISA (0.25 µg/well), and anti-FITC AlphaScreen acceptor beads (0.25 µg/well) were added and incubated for 90 min before the signals were measured with EnVison Xcite. […] The bound state was measured by incubating the labeled peptide and the protein without test compounds. […] The IC50 value was calculated by Graph pad prism 4.0. […]"}, "[3]": {"target": "T3, Grb2-SH2 (Homo sapiens, UniProt P62993)", "T3 construct": "made in house", "T3 sequence (P62993 whole entry)": "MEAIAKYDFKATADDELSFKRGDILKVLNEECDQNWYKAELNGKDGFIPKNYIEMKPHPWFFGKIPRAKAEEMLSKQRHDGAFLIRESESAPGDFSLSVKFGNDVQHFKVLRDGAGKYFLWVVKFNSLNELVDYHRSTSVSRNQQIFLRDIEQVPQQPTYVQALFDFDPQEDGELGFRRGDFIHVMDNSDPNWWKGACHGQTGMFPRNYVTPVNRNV", "experiment": "Grb2-SH2 binding AlphaScreen assay", "details": "AlphaScreen assay (Figure S8A)", "protocol": "as §1"}},
  "note": "pIC50: −log10 of the molar value.",
  "data": [
    {"smiles": "O=C1C=CC(=NC2=C(Cl)C(=O)c3ccccc3C2=O)C=C1", "note": "[Compound 1]", "values": [
      {"measurement": "pIC50", "setting": "[1]", "value": 5.00},
      {"measurement": "Inhibition of STAT1-SH2 binding", "setting": "[2]", "value": "inhibited neither"},
      {"measurement": "Inhibition of Grb2-SH2 binding", "setting": "[3]", "value": "inhibited neither"}
    ]}
  ]
}
